Consider three compounds from patent publication US11059778B2, “Cannabinoid receptor CB2 ligand 4-(aminomethyl)-N, N-dialkylanilines” (UNIVERSITY OF PITTSBURGH—OF THE COMMONWEALTH SYSTEM OF …, priority 2015, dated 2021).

The target of one series is T1, human CB1 receptors (Homo sapiens, UniProt P21554).
T1 construct: expressed in transfected cells
In words: [3H]CP-55,940 radioligand competition binding assay, CB1. Particulars: CHO cell membranes, [3H]CP-55,940 displacement. On the procedure:
Binding assay. The bioassay is carried out using the Perkin Elmer 96-well Top Counter. This bioassay is also known as a competition binding assay and the biological evaluation is to determine the CB receptor binding affinity (Ki) of the screened ligands by displacing [^3H]-CP-55940 (or other radioligands). The brief procedure is given below.
Perkin Elmer 96-well TopCounter is used at PMLSC and in our laboratory to determine the CB receptor binding affinity (Ki) of the in-silico screened ligands by displacing [^3H]-CP-55,940 (or other radioligands). In competition binding experiments, the tested compound dilutions are carried out in triplicate in TME buffer (25 mM Tris, 5 mM MgCl2, 1 mM EDTA) containing 0.1% (w/v) fatty acid free bovine serum albumin (BSA), pH 7.4. Various concentrations of the tested compound are added in the same volume to 0.5 nM [^3H]CP-55,940. TME buffer and cell membrane preparations expressing CB receptors (2.5 μg per well) are added to a final volume of 200 μL. For the saturation binding experiments, varying concentrations of [^3H]CP-55,940 (0.05-1.5 nM) with or without 2 μM of unlabeled ligands (CP-55,940 or WIN-55,212-2) are incubated with the receptor membrane preparations to determine Kd and nonspecific binding. After the binding suspensions are incubated at 30° C. for 1 hr, the reaction is terminated by rapid filtration through microfiltration plates coated with 0.5% polyethylenimine (Unifilter GF/B filterplate, PerkinElmer) followed by 5 washes with ice cold TME buffer containing 0.5% BSA on a Packard Filtermate Harvester (PerkinElmer). The plates are then dried overnight and 30 μl MicroScint 0 scintillation cocktail are added to each well of the dried filter plates. Then the bound radioactivity is counted using a Perkin Elmer 96-well TopCounter. The Ki is calculated by using nonlinear regression analysis (Prism 5; GraphPad Software Inc., San Diego, Calif.), with the Kd values for [^3H]CP-55,940 determined from saturation binding experiments. This assay is used for determining binding affinity parameters (Ki) of ligand-receptor interactions for the CB receptor.
The affinities of the synthesized ligands were determined in radioligand binding studies at human CB1 and CB2 receptors using [3H](—)-cis-3-[2-hydroxy-4-(1,1 dimethylheptyl)phenyl]-trans-4-(3-hydroxypropyl) cyclohexanol (CP55,940) as a CB receptor radioligand. As a source for human CB1 and CB2 receptors, membrane preparations of Chinese hamster ovary (CHO) cells stably expressing the respective receptor subtype were utilized (50 μg of protein/vial). CB2 selective ligand SR144528 (CB2 inverse agonist) and CB1 ligand SR141716 (CB1 inverse agonist) were used as positive controls, respectively, along with the tested compounds in bioassays experiments. Only compounds with high CB2 receptor binding potency was chosen to carry out the CB1 binding assay. CB ligand competition binding assay was carried out as described previously in Gertsch, J., et al., Beta-caryophyllene is a dietary cannabinoid. Proc Natl Acad Sci USA 2008, 105 (26), 9099-104. Briefly, non-radioactive (or cold) ligands (synthesized derivatives and reference ligands) were diluted in a binding buffer (50 mM Tris-HCl (pH 7.4), 5 mM MgC12, 2.5 mM EGTA, and 0.1% (w/v) fatty acid free BSA), supplemented with 10% dimethyl sulfoxide and 0.4% methyl cellulose. Each assay plate well contained a total of 200 μL of reaction mixture composed of 5 μg of CB1 (or 2.5 μg CB2) membrane protein, labeled [3H]-CP-55,940 ligand at a final concentration of 2.5 nM, and the unlabeled ligand at its varying dilutions as stated above. Plates were incubated at 30° C. for 1 hour with gentle shaking.
The reaction was terminated by rapid filtration through Unifilter GF/B filter plates using a Unifilter Cell Harvester (PerkinElmer). After the plate was allowed to dry overnight, 30 μL MicroScint-0 cocktail (PerkinElmer) was added to each well, and the radioactivity was counted using a PerkinElmer TopCounter. […]

Series [1] deals with osteoclast precursor RAW264.7 cells. The series is classed as cell-based. On the procedure:
FIGS. 6A and 6B relate to cAMP Assay Results. Cytotoxicity effects of the synthesized CB2 ligands. FIG. 5A: Cytotoxicity effects of compound 15. FIG. 5B: Cytotoxicity effects of compound 18. Osteoclast precursor RAW264.7 cells (1.5×10^3 cells/well) were seeded on 96-well plates. Cells were incubated with the indicated doses of compounds 15 and 18 for 48 hours. The percentage of cell survival was determined by the MTT assay. Data is the mean±SD of three experiments carried out in duplicate.
The cell-proliferation effect of our CB2 ligands on the osteoclast precursor RAW264.7 cells was assessed using MTT 3-(4,5-dimethylthiazol-2-yl)-2,5-diphenyltetrazolium bromide (Sigma, St. Louis, USA). […] Optical density was read at 540 nm and subtracted from the background at 720 nm. The effect of ligands on cell viability was expressed as percent cell viability, with vehicle-treated control cells set at 100% (Feng, R., et al., KD5170, a novel mercaptoketone-based histone deacetylase inhibitor, exerts antimyeloma effects by DNA damage and mitochondrial signaling. Mol Cancer Ther 2008, 7 (6), 1494-505).
The cytotoxicity assay was carried out to exclude that the high osteoclast formation inhibition effects were not due to the toxicity of the newly discovered compounds. The cytotoxic effects were measured by utilizing the MTT cell-viability assay. […]

T1 sequence (P21554 whole entry): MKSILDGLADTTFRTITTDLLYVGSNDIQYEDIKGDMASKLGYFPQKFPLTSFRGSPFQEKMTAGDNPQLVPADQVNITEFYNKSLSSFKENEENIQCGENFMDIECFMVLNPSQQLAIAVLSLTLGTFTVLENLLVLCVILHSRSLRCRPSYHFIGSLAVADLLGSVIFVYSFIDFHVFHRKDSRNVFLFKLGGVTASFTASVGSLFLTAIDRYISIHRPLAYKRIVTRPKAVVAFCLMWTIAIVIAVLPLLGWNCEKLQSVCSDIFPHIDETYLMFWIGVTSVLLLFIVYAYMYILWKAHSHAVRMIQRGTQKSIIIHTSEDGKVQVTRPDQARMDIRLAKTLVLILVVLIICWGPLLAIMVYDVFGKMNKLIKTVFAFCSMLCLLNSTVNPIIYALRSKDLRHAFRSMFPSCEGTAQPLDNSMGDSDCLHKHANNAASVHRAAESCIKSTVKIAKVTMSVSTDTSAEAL

Regarding `CCN(CC)c1ccc(CN(Cc2cc(OC)c(OC)c(OC)c2)C(=O)c2cccs2)cc1` [Compound 11, N-(4-(diethylamino)benzyl)-N-(3,4,5-trimethoxybenzyl)thiophene-2-carboxamide], the inhibition constant (Ki) (as a rule, a measure of affinity in units of concentration, obtained from inhibition or displacement) on human CB1 receptors was determined as 3.28 µM. This lies in the single-digit micromolar range. `CCN(CC)c1ccc(CN(Cc2cc(OC)c(OC)c(OC)c2)S(=O)(=O)/C=C/c2ccccc2)cc1` [Compound 15, (E)-N-(4-(diethylamino)benzyl)-2-phenyl-N-(3,4,5-trimethoxybenzyl)ethene-1-sulfonamidebenzenesulfonamide] gave a Ki at human CB1 receptors of more than 20 µM. For the same compound, the “cell viability as compared to the control group (MTT)” value in series [1] is recorded as “not significantly altered”. Consider `CCN(CC)c1ccc(CN(Cc2cc(OC)c(OC)c(OC)c2)S(=O)(=O)c2ccc(C=O)cc2)cc1` [Compound 18, N-(4-(diethylamino)benzyl)-4-formyl-N-(3,4,5-trimethoxybenzyl)benzenesulfonamide], for which the affinity on human CB1 receptors, expressed as Ki, was 2.29 µM. Further, in series [1], the “cell viability as compared to the control group (MTT)” value is “not significantly altered”.
